Measured values reported in ChEMBL document CHEMBL1153983, “Anti-HBV agents. Part 2: synthesis and in vitro anti-hepatitis B virus activities of alisol A derivatives” (Bioorg Med Chem Lett, 2009).

How the values were obtained:
[1] = Cytotoxicity against human HepG2(2.2.15) cells; type: cell-based
Hepatitis B virus [2] = test: Antiviral activity against HBV assessed as inhibition of viral surface antigen secretion; type: functional, organism-based
[3] = Selectivity index, ratio of CC50 for human HepG2(2.2.15) cells to IC50 for HBV surface antigen secretion; type: functional
Hepatitis B virus [4] = test: Antiviral activity against HBV assessed as inhibition of viral early antigen secretion; type: functional, organism-based
[5] = Selectivity index, ratio of CC50 for human HepG2(2.2.15) cells to IC50 for HBV early antigen secretion; type: functional

Row | Structure (SMILES) | CC50 [1] | IC50 (Hepatitis B virus [2]) | Ratio CC50/IC50 [3] | IC50 (Hepatitis B virus [4]) | Ratio CC50/IC50 [5]
1 | CCOCC(=O)O[C@@H](C[C@@H](C)[C@]12CC[C@@]3(C)[C@@]1(C[C@H](OC(=O)COCC)[C@H]1[C@@]4(C)CCC(=O)C(C)(C)[C@@H]4CC[C@@]13C)O2)[C@@H](OC(=O)COCC)C(C)(C)O | 250 µM | 130 µM | 1.9 | > 250 µM | <1
2 | CCOCC(=O)O[C@@H](C[C@@H](C)C1=C2C[C@H](OC(=O)COCC)[C@H]3[C@@]4(C)CCC(=O)C(C)(C)[C@@H]4CC[C@]3(C)[C@@]2(C)CC1)[C@@H](OC(=O)COCC)C(C)(C)OC(=O)COCC | > 2300 µM | 200 µM | >11 | 260 µM | >8.7
3 | COCC(=O)O[C@@H](C[C@@H](C)C1=C2C[C@H](OC(=O)COC)[C@H]3[C@@]4(C)CCC(=O)C(C)(C)[C@@H]4CC[C@]3(C)[C@@]2(C)CC1)[C@@H](OC(=O)COC)C(C)(C)OC(=O)COC | > 2500 µM | 28 µM | >90 | 27 µM | >93
4 | C[C@H](C[C@H](OC(=O)c1ccc(Cl)cc1Cl)[C@@H](OC(=O)c1ccc(Cl)cc1Cl)C(C)(C)O)C1=C2C[C@H](OC(=O)c3ccc(Cl)cc3Cl)[C@H]3[C@@]4(C)CCC(=O)C(C)(C)[C@@H]4CC[C@]3(C)[C@@]2(C)CC1 | > 1200 µM | > 1200 µM |  | > 1200 µM | 
5 | C=C(C)[C@H](OC(=O)COC(C)=O)[C@H](C[C@@H](C)C1=C2C[C@H](OC(=O)COC(C)=O)[C@H]3[C@@]4(C)CCC(=O)C(C)(C)[C@@H]4CC[C@]3(C)[C@@]2(C)CC1)OC(=O)COC(C)=O | < 30 µM | < 32 µM |  | < 32 µM | 
6 | C[C@H](C[C@H](OC(=O)/C=C/c1ccccc1Cl)[C@@H](OC(=O)/C=C/c1ccccc1Cl)C(C)(C)O)C1=C2C[C@H](OC(=O)/C=C/c3ccccc3Cl)[C@H]3[C@@]4(C)CCC(=O)C(C)(C)[C@@H]4CC[C@]3(C)[C@@]2(C)CC1 | > 1300 µM | 950 µM | >1.3 | > 1300 µM | 
7 | C=C(C)[C@H](OC(=O)COC(C)=O)[C@H](C[C@@H](C)[C@]12CC[C@@]3(C)[C@@]1(C[C@H](OC(=O)COC(C)=O)[C@H]1[C@@]4(C)CCC(=O)C(C)(C)[C@@H]4CC[C@@]13C)O2)OC(=O)COC(C)=O | > 1600 µM | 51 µM | >31 | > 1600 µM | 
8 | COCC(=O)O[C@@H](C[C@@H](C)C1=C2C[C@H](OC(=O)COC)[C@H]3[C@@]4(C)CCC(=O)C(C)(C)[C@@H]4CC[C@]3(C)[C@@]2(C)CC1)[C@@H](OC(=O)COC)C(C)(C)O | 400 µM | 140 µM | 2.9 | > 400 µM | 
9 | COCC(=O)O[C@@H](C[C@@H](C)[C@]12CC[C@@]3(C)[C@@]1(C[C@H](OC(=O)COC)[C@H]1[C@@]4(C)CCC(=O)C(C)(C)[C@@H]4CC[C@@]13C)O2)[C@@H](OC(=O)COC)C(C)(C)OC(=O)COC | > 800 µM | 110 µM | >7.3 | > 1600 µM | 
10 | C=C(C)[C@H](OC(=O)COC)[C@H](C[C@@H](C)C1=C2C[C@H](OC(=O)COC)[C@H]3[C@@]4(C)CCC(=O)C(C)(C)[C@@H]4CC[C@]3(C)[C@@]2(C)CC1)OC(=O)COC | > 2800 µM | 68 µM | >42 | 120 µM | >24
11 | C[C@H](C[C@H](OC(=O)Cc1ccc([N+](=O)[O-])cc1)[C@@H](OC(=O)Cc1ccc([N+](=O)[O-])cc1)C(C)(C)O)C1=C2C[C@H](OC(=O)Cc3ccc([N+](=O)[O-])cc3)[C@H]3[C@@]4(C)CCC(=O)C(C)(C)[C@@H]4CC[C@]3(C)[C@@]2(C)CC1 | > 1000 µM | > 1000 µM |  | > 1000 µM | 
12 | C[C@H](C[C@H](OC(=O)CNC(=O)OC(C)(C)C)[C@@H](OC(=O)CNC(=O)OC(C)(C)C)C(C)(C)O)C1=C2C[C@H](OC(=O)CNC(=O)OC(C)(C)C)[C@H]3[C@@]4(C)CCC(=O)C(C)(C)[C@@H]4CC[C@]3(C)[C@@]2(C)CC1 | > 1500 µM | 320 µM | >4.7 | 94 µM | >16
13 | C[C@H](C[C@H](OC(=O)COc1ccccc1)[C@@H](OC(=O)COc1ccccc1)C(C)(C)O)C1=C2C[C@H](OC(=O)COc3ccccc3)[C@H]3[C@@]4(C)CCC(=O)C(C)(C)[C@@H]4CC[C@]3(C)[C@@]2(C)CC1 | > 1300 µM | > 1300 µM |  | > 1300 µM | 
14 | C=C(C)[C@H](OC(=O)COC)[C@H](C[C@@H](C)[C@]12CC[C@@]3(C)[C@@]1(C[C@H](OC(=O)COC)[C@H]1[C@@]4(C)CCC(=O)C(C)(C)[C@@H]4CC[C@@]13C)O2)OC(=O)COC | > 1300 µM | 44 µM | >29 | > 1300 µM | 
15 | COCC(=O)O[C@@H](C[C@@H](C)[C@]12CC[C@@]3(C)[C@@]1(C[C@H](OC(=O)COC)[C@H]1[C@@]4(C)CCC(=O)C(C)(C)[C@@H]4CC[C@@]13C)O2)[C@@H](OC(=O)COC)C(C)(C)O | 1100 µM | 900 µM | 1.2 | > 1100 µM | <1
16 | CC(=O)NCC(=O)O[C@@H](C[C@@H](C)C1=C2C[C@H](OC(=O)CNC(C)=O)[C@H]3[C@@]4(C)CCC(=O)C(C)(C)[C@@H]4CC[C@]3(C)[C@@]2(C)CC1)[C@@H](OC(=O)CNC(C)=O)C(C)(C)O | 270 µM | 290 µM | <1 | 880 µM | <1
17 | C=C(C)[C@H](OC(=O)COCC)[C@H](C[C@@H](C)[C@]12CC[C@@]3(C)[C@@]1(C[C@H](OC(=O)COCC)[C@H]1[C@@]4(C)CCC(=O)C(C)(C)[C@@H]4CC[C@@]13C)O2)OC(=O)COCC | > 1800 µM | 20 µM | >90 | > 1800 µM | 
18 | CC(=O)OCC(=O)O[C@@H](C[C@@H](C)[C@]12CC[C@@]3(C)[C@@]1(C[C@H](OC(=O)COC(C)=O)[C@H]1[C@@]4(C)CCC(=O)C(C)(C)[C@@H]4CC[C@@]13C)O2)[C@@H](OC(=O)COC(C)=O)C(C)(C)O | 250 µM | 120 µM | 2.1 | > 250 µM | <1
19 | CCOCC(=O)O[C@@H](C[C@@H](C)[C@]12CC[C@@]3(C)[C@@]1(C[C@H](OC(=O)COCC)[C@H]1[C@@]4(C)CCC(=O)C(C)(C)[C@@H]4CC[C@@]13C)O2)[C@@H](OC(=O)COCC)C(C)(C)OC(=O)COCC | > 1400 µM | 250 µM | >5.6 | 320 µM | >4.4
20 | C=C(C)[C@H](OC(=O)COCC)[C@H](C[C@@H](C)C1=C2C[C@H](OC(=O)COCC)[C@H]3[C@@]4(C)CCC(=O)C(C)(C)[C@@H]4CC[C@]3(C)[C@@]2(C)CC1)OC(=O)COCC | > 1200 µM | 20 µM | >60 | 30 µM | >40
21 | CCOCC(=O)O[C@@H](C[C@@H](C)C1=C2C[C@H](OC(=O)COCC)[C@H]3[C@@]4(C)CCC(=O)C(C)(C)[C@@H]4CC[C@]3(C)[C@@]2(C)CC1)[C@@H](OC(=O)COCC)C(C)(C)O | > 2600 µM | 400 µM | >6.5 | 2000 µM | >1.3
22 | C=C(C)[C@H](OC(=O)CC(C)C)[C@H](C[C@@H](C)C1=C2C[C@H](OC(=O)CC(C)C)[C@H]3[C@@]4(C)CCC(=O)C(C)(C)[C@@H]4CC[C@]3(C)[C@@]2(C)CC1)OC(=O)CC(C)C | > 1200 µM | > 1200 µM |  | > 1200 µM | 
23 | C=C(C)[C@H](OC(=O)CCCC)[C@H](C[C@@H](C)C1=C2C[C@H](OC(=O)CCCC)[C@H]3[C@@]4(C)CCC(=O)C(C)(C)[C@@H]4CC[C@]3(C)[C@@]2(C)CC1)OC(=O)CCCC | > 920 µM | > 920 µM |  | > 920 µM | 
24 | C[C@H](C[C@H](OC(=O)c1ccccc1I)[C@@H](OC(=O)c1ccccc1I)C(C)(C)O)C1=C2C[C@H](OC(=O)c3ccccc3I)[C@H]3[C@@]4(C)CCC(=O)C(C)(C)[C@@H]4CC[C@]3(C)[C@@]2(C)CC1 | > 1500 µM | > 1500 µM |  | > 1500 µM | 
25 | C[C@H](C[C@H](OC(=O)c1ccc(Br)cc1)[C@@H](OC(=O)c1ccc(Br)cc1)C(C)(C)O)C1=C2C[C@H](OC(=O)c3ccc(Br)cc3)[C@H]3[C@@]4(C)CCC(=O)C(C)(C)[C@@H]4CC[C@]3(C)[C@@]2(C)CC1 | 650 µM | > 650 µM | <1 | > 650 µM | <1
26 | CC(=O)OCC(=O)O[C@@H](C[C@@H](C)C1=C2C[C@H](OC(=O)COC(C)=O)[C@H]3[C@@]4(C)CCC(=O)C(C)(C)[C@@H]4CC[C@]3(C)[C@@]2(C)CC1)[C@@H](OC(=O)COC(C)=O)C(C)(C)O | 51 µM | < 38 µM | >1.3 | > 51 µM | <1
27 | C[C@H](C[C@H](OC(=O)CCOc1ccccc1)[C@@H](OC(=O)CCOc1ccccc1)C(C)(C)O)C1=C2C[C@H](OC(=O)CCOc3ccccc3)[C@H]3[C@@]4(C)CCC(=O)C(C)(C)[C@@H]4CC[C@]3(C)[C@@]2(C)CC1 | > 950 µM | > 950 µM |  | > 950 µM | 
28 | C[C@H](C[C@H](OC(=O)CN1C(=O)c2ccccc2C1=O)[C@@H](OC(=O)CN1C(=O)c2ccccc2C1=O)C(C)(C)O)C1=C2C[C@H](OC(=O)CN3C(=O)c4ccccc4C3=O)[C@H]3[C@@]4(C)CCC(=O)C(C)(C)[C@@H]4CC[C@]3(C)[C@@]2(C)CC1 | > 1500 µM | 1200 µM | >1.2 | 140 µM | >11
29 | Nc1ccn([C@@H]2CS[C@H](CO)O2)c(=O)n1 [LAMIVUDINE] | 31000 µM | 18000 µM | 1.7 | 38000 µM | 0.82
